Here are results for 61 compounds from ChEMBL document CHEMBL1157539, “Thousands of chemical starting points for antimalarial lead identification” (Nature, 2010).

This assay deals with Plasmodium falciparum. Put plainly: GSK_TCMDC: Inhibition of Plasmodium falciparum 3D7 in whole erythrocytes, using parasite LDH activity as an index of growth. Type of assay: functional, organism-based.

Regarding `COc1c(OC)c(OC)c2ccccc2c1CCNCCCCNCCc1c(OC)c(OC)c(OC)c2ccccc12`, under “Plasmodium falciparum, 3D7”, the XC50 amounted to 612 nM.

For `CCn1cc(CN2CCCC(C(=O)Nc3ccc(-c4nc5ccccc5[nH]4)cc3)C2)c(C)n1` (configuration not stated), the XC50 (Plasmodium falciparum, 3D7) stood at 802 nM. Consider `C[C@H](Cc1ccc(OCCCCCCOc2ccccc2)cc1)NC[C@@H](O)c1cc(Br)no1`, for which, for the setting “Plasmodium falciparum, 3D7”, the XC50 was 883 nM.

`C#CC(C)(CO)N1CCCC1` (configuration not stated): the XC50 (Plasmodium falciparum, 3D7) amounted to 379 nM. As to `O=C(/C=C/c1ccc(Cl)c(Cl)c1)NC1CCC(CN2CCC(c3c[nH]c4ccccc34)CC2)CC1` (configuration not stated), the XC50 (Plasmodium falciparum, 3D7) was 235 nM. As for `CS(=O)(=O)c1cccc(-c2cnc3[nH]cc(-c4cccc(CCN)c4)c3c2)c1`, for the setting “Plasmodium falciparum, 3D7”, the XC50 is 1560 nM. With `O=C(/C=C/c1ccc(Cl)c(Cl)c1)N1CCC(C(O)CN2CCC(c3c[nH]c4ccccc34)CC2)CC1` (configuration not stated), the XC50 (Plasmodium falciparum, 3D7) was 859 nM. For the setting “Plasmodium falciparum, 3D7”, `NCc1ccc(-c2cccc(CNC3CCN(Cc4ccccc4)CC3)c2)cc1` gave an XC50 of 672 nM. On to `NS(=O)(=O)c1cccc(Nc2nccc(-c3cnn4ncccc34)n2)c1`, for which the XC50 (Plasmodium falciparum, 3D7) was 661 nM. In turn, `COc1cccc2c(NN=Cc3ccc(Cl)cc3)ccnc12` registered an XC50 (Plasmodium falciparum, 3D7) of 814 nM. Still for that read-out and setting: next, `COc1cccc(CN2CCCC(COC(c3ccc(F)cc3)c3ccc(F)cc3)C2)c1O` (configuration not stated): 330 nM; `COc1ccccc1N1CCN(CCCCNC(=O)c2ccc(NC(=O)c3ccc(OC(F)(F)F)cc3)cc2)CC1`: 663 nM; `Cc1nnsc1C(=O)Nc1cccc(-c2csc(-c3nc4ccccc4[nH]3)c2)c1`: 351 nM. Compound `COC(=O)c1ccc(CC(C)NCC(O)c2cccc(OCc3ccccc3)c2)cc1` (configuration not stated) showed an XC50 (Plasmodium falciparum, 3D7) of 1160 nM. For `c1ccc2c(Nc3ccc(Oc4ccc(Nc5c6ccccc6nc6ccccc56)cc4)cc3)c3ccccc3nc2c1`, the XC50 (Plasmodium falciparum, 3D7) came to 518 nM. Where the note is “Plasmodium falciparum, 3D7”, `O=C(Nc1ccc(SC(F)(F)F)cc1)Nc1ccc(Cl)c(Cl)c1` yielded an XC50 of 909 nM. For the compound `Cn1c(Nc2cc(C(C)(C)C)on2)nc2cc(Nc3ccnc(Nc4cccc(CS(C)(=O)=O)c4)n3)ccc21`, the XC50 (Plasmodium falciparum, 3D7) was 571 nM. `Cc1ccc(C2(C)CN(CCCOc3cccc(-c4ccc(C(=O)NC(C)C)cc4)c3)CCO2)cc1` (configuration not stated) registered an XC50 (Plasmodium falciparum, 3D7) of 960 nM. As for `COc1ccc(CNCCCCCCNCc2ccc(OC)c3ccccc23)c2ccccc12`, the XC50 (Plasmodium falciparum, 3D7) came to 581 nM. `COc1cc(-n2cnc3cc(-c4ccc([N+](=O)[O-])cc4)sc3c2=O)ccc1OCCN1CCCC1` yielded an XC50 (Plasmodium falciparum, 3D7) of 775 nM. For `CCCc1cc(NCC)nc(Nc2ccc(C)cc2)n1`, for the setting “Plasmodium falciparum, 3D7”, the XC50 worked out at 894 nM. In the case of `CN(C)CCN(C)Cc1ccc(-c2ccc(NS(=O)(=O)c3cccc4cccnc34)cc2)cc1`, where the note is “Plasmodium falciparum, 3D7”, the XC50 was determined as 864 nM. The compound `COc1ccc2[nH]c(C)cc(=NN=Cc3cc(OC)c(OC)cc3OC)c2c1` showed an XC50 (Plasmodium falciparum, 3D7) of 739 nM. `Cc1ccc(C(C)C)c(Oc2ccc3nc(N)nc(N)c3c2)c1` registered an XC50 (Plasmodium falciparum, 3D7) of 10.2 nM.

Take `Cn1cncc1C(=O)Nc1ccc(-c2cccc(-c3nc4cc(F)ccc4[nH]3)c2)cc1`: the XC50 (Plasmodium falciparum, 3D7) turned out to be 818 nM.

As for `Cc1nc2c(s1)c(=O)cc(CCc1cccc(F)c1F)n2CC(=O)N(Cc1ccc(-c2ccc(C(F)(F)F)cc2)cc1)C1CCN(C(C)C)CC1`, where the note is “Plasmodium falciparum, 3D7”, the XC50 was 767 nM.

Compound `Cc1ccc(CC(C)NCC(O)c2cccc(C(F)(F)F)c2)cc1` (configuration not stated) returned an XC50 of 709 nM. For the compound `O=C(/C=C/c1ccccc1Cl)Nc1ccc(Br)c(OCCN2CCN(CCN3CCOCC3)CC2)c1`, the XC50 (Plasmodium falciparum, 3D7) is 763 nM. For the compound `Cc1ccc2[nH]c(-c3ccccc3)cc(=NN=Cc3cccnc3)c2c1`, where the note is “Plasmodium falciparum, 3D7”, the XC50 came out at 691 nM. The same measure, in the same setting: next, `O=C(Nc1cccnc1)c1cc(C(=O)Nc2cccnc2)cc([N+](=O)[O-])c1`: 1120 nM; `CCOC(=O)c1ccc(NC(=O)N(Cc2ccc(-c3cccc(CN4CCNCC4)c3)cc2)C2CCN(Cc3ccccc3)CC2)cc1`: 748 nM. Still for that read-out and setting: next, `CN(C)c1ccc(C=Cc2ccc3ccccc3n2)c(Cl)c1`: 436 nM; `CC[C@H]1CN2CC[C@H]1C[C@H]2[C@H](O)c1cc(N2CCCC(C(=O)N(CC)CC)C2)nc2ccc(OC)cc12` (some centres not stated): 73.1 nM; `CCCCN(C(=O)c1ccccc1C)c1nnc(-c2ccccc2C)s1`: 927 nM.

In turn, `c1cc(Cc2ccc(Nc3c4ccccc4nc4ccccc34)cc2)cc(Nc2c3ccccc3nc3ccccc23)c1` gave an XC50 (Plasmodium falciparum, 3D7) of 143 nM. With `Cc1ccc(C2CCN(CCCCNC(=O)c3ccc(NC(=O)c4ccc(Cl)cc4)cc3)CC2)c(OCC(F)(F)F)c1`, the XC50 (Plasmodium falciparum, 3D7) is 284 nM. `O=C(Nc1ccc(Cn2ncc(N3CCCNCC3)c(Cl)c2=O)cc1)Nc1cc(C(F)(F)F)cc(C(F)(F)F)c1` gave an XC50 (Plasmodium falciparum, 3D7) of 588 nM.

In the case of `O=C(Nc1cccc(CN2CCCN(CC3CC3)CC2)c1)c1ccc(-c2ccccc2)cc1`, under “Plasmodium falciparum, 3D7”, the XC50 stood at 930 nM. The compound `Cc1onc(-c2ccccc2)c1-c1nc(NCCC(c2ccccc2)c2ccccc2)no1` showed an XC50 (Plasmodium falciparum, 3D7) of 835 nM. For the compound `COCn1ccc2c3c(N)nc(N)nc3ccc21`, the XC50 (Plasmodium falciparum, 3D7) turned out to be 990 nM.

Compound `O=C(/C=C/c1ccccc1O)NC1CCC(CN2CCC(c3c[nH]c4ccccc34)CC2)CC1` (configuration not stated) gave an XC50 of 461 nM. This compound also showed an XC50 (Plasmodium falciparum, 3D7) of 756 nM. Regarding `COc1ccccc1CCCON1C(=N)N=C(N)NC1(C)C`, the XC50 (Plasmodium falciparum, 3D7) stood at 3.2 nM.

For the compound `CCC(C)NS(=O)(=O)c1ccc2nc(Nc3ccc(C)c(Cl)c3)n(C3CCCCC3)c2c1` (configuration not stated), for the setting “Plasmodium falciparum, 3D7”, the XC50 was found to be 511 nM.

As to `O=C(Nc1ccc(Br)cc1)c1cc(Br)ccc1NS(=O)(=O)c1ccc(C(F)(F)F)cc1`, the XC50 (Plasmodium falciparum, 3D7) came to 180 nM.

For `CNS(=O)(=O)Cc1ccc(Nc2nccc(Nc3cccc4c3cnn4C(=O)Nc3ccccc3)n2)cc1`, the XC50 (Plasmodium falciparum, 3D7) came out at 959 nM. Still for that read-out and setting: next, `CN1CCN(CC(O)CNC(=O)Nc2ccc(Br)cc2)CC1` (configuration not stated): 149 nM; `CC[C@H](C)[C@H](NC(=O)[C@H](CC1CCCCC1)[C@H](CC)N(O)C=O)C(=O)Nc1ccccn1`: 176 nM; `COc1ccc(S(=O)(=O)N2CCCC(C)C2)cc1N1CCN(C(=O)c2ccc([N+](=O)[O-])o2)CC1` (configuration not stated): 1250 nM. The compound `O=C(NC1CCC(N2CCC(c3ccccc3C(F)(F)F)CC2)CC1)c1cc2ccccc2[nH]1` (configuration not stated) yielded an XC50 (Plasmodium falciparum, 3D7) of 521 nM. Under “Plasmodium falciparum, 3D7”, `Cc1c(NC(=O)COc2ccc(Cl)cc2C(=O)c2cc(F)cc(C(F)(F)F)c2)ccc2ncsc12` returned an XC50 of 1020 nM. As to `Cc1ccc(CN2CCN(c3cc4c(cc3Cl)CCN4C(=O)Cc3ccc(NC(=O)c4ccc(C(F)(F)F)cc4)cc3)CC2)cc1`, the XC50 (Plasmodium falciparum, 3D7) worked out at 935 nM. The compound `Clc1nc(Cl)c2c(ccn2Cc2ccccc2)n1` displayed an XC50 (Plasmodium falciparum, 3D7) of 787 nM.

Consider `O=C(Nc1ccc(Cl)c(Cl)c1)N1CCC(NCc2cccc([N+](=O)[O-])c2)CC1`, for which, where the note is “Plasmodium falciparum, 3D7”, the XC50 stood at 763 nM.

Under “Plasmodium falciparum, 3D7”, `CC(C)c1cc(C(=O)N[C@@H](Cc2ccccc2)[C@H](O)CNC2CCCCC2)cc(N2CCCC2=O)c1` yielded an XC50 of 121 nM. Take `CC1(C)CN2CCCC2c2cc(NC(=O)/C=C/c3ccccc3Cl)ccc21` (configuration not stated): the XC50 (Plasmodium falciparum, 3D7) is 991 nM. For the compound `O=C(/C=C/c1ccc(Cl)cc1)NCCCCCN1CCCN(C(=O)Nc2ccc(Cl)c(C(F)(F)F)c2)CC1`, the XC50 (Plasmodium falciparum, 3D7) came out at 910 nM. Regarding `COc1ccc2cc(C(c3nnnn3CC3CCCO3)N3CCc4ccccc43)c(=O)[nH]c2c1` (configuration not stated), the XC50 (Plasmodium falciparum, 3D7) came to 795 nM. With `COc1ccc(NS(=O)(=O)c2cccc(C(=O)Nc3ccc(C(F)(F)F)cc3)c2)cc1N1CCN(CC(C)C)CC1`, the XC50 (Plasmodium falciparum, 3D7) is 838 nM. Compound `Cc1c(O)cccc1Nc1ccnc2ccc(C(F)(F)F)cc12` returned an XC50 (Plasmodium falciparum, 3D7) of 31.1 nM. `Cc1cc(N2C(N)=NC(N)=NC2(C)C)ccc1Cl` had an XC50 (Plasmodium falciparum, 3D7) of 20.9 nM. As for `COc1ccc(NC(=O)/C=C/c2ccccc2Cl)cc1OCCN1CCC(c2nc3ccccc3[nH]2)CC1`, the XC50 (Plasmodium falciparum, 3D7) came out at 858 nM.
